Reference: patent publication US20100010060A1, “Isoindolin-1-One-, Isoindolin-3-One- and Isoindolin-1,3-Dione-Derivatives and Use Thereof” (Bayer Healthcare AG, priority 2006, published 2010)

Target: human factor Xa (FXa) (Homo sapiens, UniProt P00742)
Assay: Determination of the factor Xa inhibition (chromogenic substrate)
Type: biochemical
Settings: human FXa 0.5 nmol/l, 150 μmol/l Pefachrome FXa, 25° C., pH 8.3, extinction at 405 nm
Protocol: a.1) Determination of the Factor Xa Inhibition:
The enzymatic activity of human factor Xa (FXa) is measured using the conversion of a chromogenic substrate specific for FXa. Factor Xa cleaves p-nitroaniline from the chromogenic substrate. The determinations are carried out in microtitre plates as follows:
The test substances, in various concentrations, are dissolved in DMSO and incubated for 10 minutes at 25° C. with human FXa (0.5 nmol/l dissolved in 50 mmol/l of Tris buffer [C,C,C-tris(hydroxymethyl)aminomethane], 150 mmol/l of NaCl, 0.1% BSA [bovine serum albumin], pH=8.3). Pure DMSO is used as control. The chromogenic substrate (150 μmol/l of Pefachrome® FXa from Pentapharm) is then added. After an incubation time of 20 minutes at 25° C., the extinction at 405 nm is determined.

human factor Xa (FXa), sequence (P00742 235-488 limits assumed): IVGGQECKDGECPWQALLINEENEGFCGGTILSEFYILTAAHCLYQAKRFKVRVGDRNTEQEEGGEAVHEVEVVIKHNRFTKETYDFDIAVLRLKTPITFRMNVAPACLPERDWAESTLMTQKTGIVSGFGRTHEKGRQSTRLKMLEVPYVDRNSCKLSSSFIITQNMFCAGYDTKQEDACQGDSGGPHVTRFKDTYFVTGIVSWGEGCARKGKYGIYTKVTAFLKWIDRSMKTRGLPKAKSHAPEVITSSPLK
human factor Xa (FXa), sequence (P00742 41-179 partner limits assumed): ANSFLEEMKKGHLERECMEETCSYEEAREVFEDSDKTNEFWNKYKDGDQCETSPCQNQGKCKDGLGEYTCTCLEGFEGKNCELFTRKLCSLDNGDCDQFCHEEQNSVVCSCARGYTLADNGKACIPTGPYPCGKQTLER

IC50: 1.1 nM
Structure (SMILES): N=C1OCCN1c1cccc(CN2Cc3cccc(NC(=O)c4ccc(Cl)s4)c3C2=O)c1 [Example 5, 5-Chloro-N-{2-[3-(2-imino-1,3-oxazolidin-3-yl)benzyl]-3-oxo-2,3-dihydro-1H-isoindol-4-yl}-thiophene-2-carboxamide methanesulphonate]
